# Test results published in BindingDB's records for doi:10.7270/Q25H7DQC (Nmmlsc, 2009).
# Target: Ras-related protein Rab-2A (Canis lupus familiaris, UniProt P61105)
# Assay: fluorescent GTP competition at wildtype Rab2A – biochemical, multiplex dose response, Bodipy-FL-GTP, flow cytometry, SAR follow-up (AID 2033)
# [1] = inactive by the depositor's call
# Sequence of Ras-related protein Rab-2A (P61105 whole entry): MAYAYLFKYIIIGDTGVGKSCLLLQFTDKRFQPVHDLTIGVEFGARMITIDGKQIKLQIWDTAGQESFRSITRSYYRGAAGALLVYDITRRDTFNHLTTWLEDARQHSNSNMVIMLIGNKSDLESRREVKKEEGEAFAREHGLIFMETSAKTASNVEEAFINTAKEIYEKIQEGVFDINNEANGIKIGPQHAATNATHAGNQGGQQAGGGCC
SMILES,EC50 [1] [µM],EC50 [µM]
COc1ccc(-c2noc(CCC(=O)N3CCN(c4cccc(Cl)c4)CC3)n2)cc1,8.53,–
COc1ccc(-c2ccc(CCC(=O)N3CCN(c4cc(C)ccc4C)CC3)s2)cc1,2.48,–
"COc1ccc(-c2ccc(CCC(=O)N3CCN(c4cc(C)ccc4C)CC3)[nH]2)cc1 [1-[4-(2,5-dimethylphenyl)piperazin-1-yl]-3-[5-(4-methoxyphenyl)-1H-pyrrol-2-yl]propan-1-one]",5.22,–
"COc1ccc(-c2noc(CCC(=O)N3CCN(c4ccccc4Cl)CC3)n2)cc1 [1-[4-(2-chlorophenyl)piperazin-1-yl]-3-[3-(4-methoxyphenyl)-1,2,4-oxadiazol-5-yl]propan-1-one]",2.39,–
"COc1ccc(-c2noc(CCC(=O)N3CCN(c4ccccc4F)CC3)n2)cc1 [1-[4-(2-fluorophenyl)piperazin-1-yl]-3-[3-(4-methoxyphenyl)-1,2,4-oxadiazol-5-yl]propan-1-one]",0.733,–
"COc1ccc(-c2noc(CCC(=O)N3CCN(c4cccc(Br)c4)CC3)n2)cc1 [1-[4-(3-bromophenyl)-1-piperazinyl]-3-[3-(4-methoxyphenyl)-1,2,4-oxadiazol-5-yl]-1-propanone]",–,> 30
"COc1ccc(-c2noc(CCC(=O)N3CCN(c4ccc(Br)cc4)CC3)n2)cc1 [1-[4-(4-bromophenyl)piperazin-1-yl]-3-[3-(4-methoxyphenyl)-1,2,4-oxadiazol-5-yl]propan-1-one]",–,> 30
"COc1ccc(-c2noc(CCC(=O)N3CCN(c4cccc(C(F)(F)F)c4)CC3)n2)cc1 [1-{3-[3-(4-methoxyphenyl)-1,2,4-oxadiazol-5-yl]propanoyl}-4-[3-(trifluoromethyl)phenyl]piperazine]",–,> 30
"COc1ccc(-c2noc(CCC(=O)N3CCN(c4ccccc4)CC3)n2)cc1 [3-[3-(4-methoxyphenyl)-1,2,4-oxadiazol-5-yl]-1-(4-phenylpiperazin-1-yl)propan-1-one]",–,> 30
"COc1ccc(-c2noc(CCC(=O)N3CCN(c4ccccc4OC)CC3)n2)cc1 [3-[3-(4-methoxyphenyl)-1,2,4-oxadiazol-5-yl]-1-[4-(2-methoxyphenyl)-1-piperazinyl]-1-propanone]",1.32,–
"COc1ccc(-c2noc(CCC(=O)N3CCN(c4ccc(OC)cc4)CC3)n2)cc1 [3-[3-(4-methoxyphenyl)-1,2,4-oxadiazol-5-yl]-1-[4-(4-methoxyphenyl)piperazin-1-yl]propan-1-one]",–,> 30
"COc1ccc(-c2noc(CCC(=O)N3CCN(c4ccc(C)cc4)CC3)n2)cc1 [3-[3-(4-methoxyphenyl)-1,2,4-oxadiazol-5-yl]-1-[4-(4-methylphenyl)piperazin-1-yl]propan-1-one]",0.708,–
"COc1ccc(-c2noc(CCC(=O)N3CCN(c4ccc(C(F)(F)F)cc4)CC3)n2)cc1 [3-[3-(4-methoxyphenyl)-1,2,4-oxadiazol-5-yl]-1-[4-[4-(trifluoromethyl)phenyl]piperazin-1-yl]propan-1-one]",–,> 30
COc1ccc(-c2noc(CCC(=O)N3CCN(c4cccc(OC)c4)CC3)n2)cc1 [KUC103349N],6.46,–
COc1ccc(-c2noc(CCC(=O)N3CCN(c4ccccc4Br)CC3)n2)cc1 [KUC103370N],3.22,–
COc1ccc(-c2noc(CCC(=O)N3CCN(c4ccc(F)cc4)CC3)n2)cc1 [KUC103398N],–,> 30
COc1ccc(-c2noc(CCC(=O)N3CCC(c4cc(C)ccc4C)CC3)n2)cc1 [KUC103432N],2.51,–
COc1ccc(-c2ccc(CCC(=O)N3CCN(c4cc(C)ccc4C)CC3)o2)cc1 [KUC103447N],15.1,–
COc1ccc(-c2noc(CCC(=O)N3CCN(c4ccccc4C(F)(F)F)CC3)n2)cc1 [UNM-0000306082],2.1,–
COc1ccc(-c2noc(CCC(=O)N3CCN(c4ccc(Cl)cc4)CC3)n2)cc1 [UNM-0000306121],–,> 30
COc1ccc(-c2cccc(CCC(=O)N3CCN(c4cc(C)ccc4C)CC3)c2)cc1 [UNM-0000306127],–,> 30
COc1ccc(-c2cc(CCC(=O)N3CCN(c4cc(C)ccc4C)CC3)[nH]n2)cc1 [UNM-0000306150],–,> 30

# Now from value to compound:
EC50 [1] [µM],EC50 [µM],SMILES
3.9,–,COc1cccc(-c2noc(CCC(=O)N3CCN(c4cc(C)ccc4C)CC3)n2)c1
1.67,–,Cc1ccc(C)c(N2CCN(C(=O)CCc3nc(-c4ccccc4C)no3)CC2)c1
–,> 30,Cc1ccc(C)c(N2CCN(C(=O)CCc3nc(-c4ccccc4C(F)(F)F)no3)CC2)c1
2.54,–,COc1ccc(-c2noc(CCC(=O)N3CCN(c4ccccc4C)CC3)n2)cc1
2.31,–,"COc1ccc(-c2noc(CCC(=O)N3CCN(c4cccc(C)c4C)CC3)n2)cc1 [1-[4-(2,3-dimethylphenyl)-1-piperazinyl]-3-[3-(4-methoxyphenyl)-1,2,4-oxadiazol-5-yl]-1-propanone]"
2.49,–,"COc1ccc(-c2noc(CCC(=O)N3CCN(c4cc(C)ccc4C)CC3)n2)cc1 [1-[4-(2,5-dimethylphenyl)-1-piperazinyl]-3-[3-(4-methoxyphenyl)-1,2,4-oxadiazol-5-yl]-1-propanone]"
4.14,–,"Cc1ccc(-c2noc(CCC(=O)N3CCN(c4cc(C)ccc4C)CC3)n2)cc1 [1-[4-(2,5-dimethylphenyl)-1-piperazinyl]-3-[3-(4-methylphenyl)-1,2,4-oxadiazol-5-yl]-1-propanone]"
–,> 30,"Cc1ccc(C)c(N2CCN(C(=O)CCc3nc(-c4ccc(C(F)(F)F)cc4)no3)CC2)c1 [1-[4-(2,5-dimethylphenyl)-1-piperazinyl]-3-[3-[4-(trifluoromethyl)phenyl]-1,2,4-oxadiazol-5-yl]-1-propanone]"
–,> 30,"COc1ccc(-c2noc(CCCCC(=O)N3CCN(c4cc(C)ccc4C)CC3)n2)cc1 [1-[4-(2,5-dimethylphenyl)-1-piperazinyl]-5-[3-(4-methoxyphenyl)-1,2,4-oxadiazol-5-yl]-1-pentanone]"
–,> 30,"COc1ccc(-c2noc(CC(=O)N3CCN(c4cc(C)ccc4C)CC3)n2)cc1 [1-[4-(2,5-dimethylphenyl)piperazin-1-yl]-2-[3-(4-methoxyphenyl)-1,2,4-oxadiazol-5-yl]ethanone]"
1.32,–,"Cc1cccc(-c2noc(CCC(=O)N3CCN(c4cc(C)ccc4C)CC3)n2)c1 [1-[4-(2,5-dimethylphenyl)piperazin-1-yl]-3-[3-(3-methylphenyl)-1,2,4-oxadiazol-5-yl]propan-1-one]"
2.54,–,"COc1ccc(-c2cc(CCC(=O)N3CCN(c4cc(C)ccc4C)CC3)on2)cc1 [1-[4-(2,5-dimethylphenyl)piperazin-1-yl]-3-[3-(4-methoxyphenyl)-1,2-oxazol-5-yl]propan-1-one]"
–,> 30,"COc1ccc(-c2coc(CCC(=O)N3CCN(c4cc(C)ccc4C)CC3)n2)cc1 [1-[4-(2,5-dimethylphenyl)piperazin-1-yl]-3-[4-(4-methoxyphenyl)-1,3-oxazol-2-yl]propan-1-one]"
–,> 30,"COc1ccc(-c2noc(CCC(=O)N3CCN(c4cccc(F)c4)CC3)n2)cc1 [1-[4-(3-fluorophenyl)piperazin-1-yl]-3-[3-(4-methoxyphenyl)-1,2,4-oxadiazol-5-yl]propan-1-one]"
3.13,–,"Cc1ccc(C)c(N2CCN(C(=O)CCc3nc(-c4ccccc4Br)no3)CC2)c1 [3-[3-(2-bromophenyl)-1,2,4-oxadiazol-5-yl]-1-[4-(2,5-dimethylphenyl)-1-piperazinyl]-1-propanone]"
–,> 30,"Cc1ccc(C)c(N2CCN(C(=O)CCc3nc(-c4ccccc4Cl)no3)CC2)c1 [3-[3-(2-chlorophenyl)-1,2,4-oxadiazol-5-yl]-1-[4-(2,5-dimethylphenyl)-1-piperazinyl]-1-propanone]"
16.2,–,COc1ccc(-c2noc(CCCC(=O)N3CCN(c4cc(C)ccc4C)CC3)n2)cc1 [KUC103353N]
0.335,–,Cc1ccc(C)c(N2CCN(C(=O)CCc3nc(-c4ccc(F)cc4)no3)CC2)c1 [KUC103364N]
–,> 30,Cc1ccc(C)c(N2CCN(C(=O)CCc3nc(-c4cccc(F)c4)no3)CC2)c1 [KUC103366N]
3.66,–,Cc1ccc(C)c(N2CCN(C(=O)CCc3nc(-c4cccc(Br)c4)no3)CC2)c1 [KUC103367N]
–,> 30,Cc1ccc(C)c(N2CCN(C(=O)CCc3nc(-c4cccc(C(F)(F)F)c4)no3)CC2)c1 [KUC103380N]
0.908,–,Cc1ccc(C)c(N2CCN(C(=O)CCc3nc(-c4ccccc4F)no3)CC2)c1 [KUC103401N]
–,> 30,Cc1ccc(C)c(N2CCN(C(=O)CCc3nc(-c4ccc(N(C)C)cc4)no3)CC2)c1 [KUC103409N]
0.841,–,Cc1ccc(C)c(N2CCN(C(=O)CCc3nc(-c4ccccc4)no3)CC2)c1 [UNM-0000306070]
–,> 30,COc1ccccc1-c1noc(CCC(=O)N2CCN(c3cc(C)ccc3C)CC2)n1 [UNM-0000306071]
2.94,–,Cc1ccc(C)c(N2CCN(C(=O)CCc3nc(-c4ccc(Br)cc4)no3)CC2)c1 [UNM-0000306072]
1.79,–,Cc1ccc(C)c(N2CCN(C(=O)CCc3nc(-c4ccc(Cl)cc4)no3)CC2)c1 [UNM-0000306083]
2.9,–,Cc1ccc(C)c(N2CCN(C(=O)CCc3nc(-c4cccc(Cl)c4)no3)CC2)c1 [UNM-0000306086]
–,> 30,COc1ccc(-c2noc(CCC(=O)N3CCN(c4cccc(C)c4)CC3)n2)cc1 [UNM-0000306125]
